# Reference: publication PMC11475664, “Alpha-glucosidase inhibitory compounds from Vietnamese lichen Usnea baileyi: in vitro and in silico aspects” (RSC Advances, 2024)
# Like-named read-outs stand apart in the source and are kept apart here.
# Key:
# yeast alpha-glucosidase = experiment: Alpha-glucosidase inhibition assay; assay type: biochemical; conditions: for IC50: yeast alpha-glucosidase
# Text: Evaluation of the inhibitory activity of compounds against yeast alpha-glucosidase followed a previous procedure.[30]
# Hek293 cells = experiment: Cytotoxicity assay (MTT, 72 h) on Hek293; assay type: cell-based; conditions: Homo sapiens, read-out: Hek293 IC50
# Procedure: (§1) Table S2. Cytotoxicity of compounds 1-6, 11, 1a-1e, and 6a […]
# (§2) The method used followed that reported by Nguyen et al. (2022). Briefly, HepG2 and Hek293 cells in a complete medium containing DMEM (HyClone, Cytiva, USA) and 10% fetal bovine serum (FBS) were seeded into a 96-well plate at 5 × 10^4 cells per well. The cells were then incubated at 37°C with 5% CO2. After culturing for 24 h, the old medium was replaced by diluted compounds (in DMSO), positive control Doxorubicin (DOX, Fesenius Kabi, Germany), and negative control dimethyl sulfoxide (DMSO, Sigma-Aldrich, Germany). After 72 h of treatment, MTT (3-(4,5-Dimethyl-2-thiazolyl)-2,5-diphenyl-2H-tetrazolium bromide) was added into each well of the test plate. The plate was incubated at 37°C with 5% CO2 for another 3 h. DMSO was used to dissolve the crystals from the interaction between MTT and viable cells. The absorbance of samples was read at 570 nm by the ELISA Reader (BioTek, USA). Cell death (% inhibition) was estimated by the following formula:
# (§3) % Inhibition = 100 − [100 × (A Sample – A B1)/(ADMSO – A B2)]
# (§4) Where, ASample: Absorbance of sample, ADMSO: Absorbance of negative control, AB1: Absorbance of blank of sample, AB2: Absorbance of blank of DMSO. The IC50 value and the inhibitory chart were respectively calculated and built using GraphPad Prism software (version 8.0.1, Insightful Science LLC, […]
# (§5) Ref: Nguyen HH, Aree T, Nguyen HT, et al. Diorygmones A-B, two new guaiane-sesquiterpenes from the cultured lichen mycobiont of Diorygma sp. Natural Product Research. Published online February 1,
# HepG2 cells = experiment: Cytotoxicity assay (MTT, 72 h) on HepG2; assay type: cell-based; conditions: Homo sapiens, read-out: HepG2 IC50
# Procedure: as §1, §2, §3, §4, §5
# alpha-glucosidase [1] = conditions: cited from earlier work
# alpha-glucosidase [2] = experiment: Inhibitory type assay of 1e on alpha-glucosidase (Lineweaver–Burk plots, pNPG substrate); assay type: biochemical, yeast
# Procedure: Replacing the imine group in 1a and 1b for the aldehyde group in 1 enhances the activity. […] In contrast, the bromine atoms within a depsidone skeleton (1c, 1d, and 6a) decrease the activity. […] At concentrations of 0, 1.82, 3.64, 7.28, and 14.57 μM of 1e, the activity was evaluated. […] This type was identical to that of parmosidone F.[18]
# The mechanisms of inhibition of alpha-glucosidase by 1e were determined by Lineweaver–Burk plots using methods similar to those reported in the literature.[18] Enzyme inhibition due to various concentrations of 1e was evaluated by monitoring the effects of different substrate concentrations. For Lineweaver–Burk double reciprocal plots 1/enzyme velocity (1/V) vs. 1/substrate concentration (1/[S]), the inhibition type was determined using various concentrations of pNPG (1 mM, 2 mM, and 4 mM) as a substrate in the presence of different concentrations of the test compounds (0, 1.82, 3.64, 7.28, and 14.57 μM for 1e). The experiments were carried out in 3 replicates. The mixtures were incubated at 37 °C and the optical density was measured at 405 nm every 1 minutes for 30 minutes with the ELx800 Absorbance Microplate Reader (BioTek Instruments, Inc., Vermont, USA). Optimal concentrations of the tested compounds were chosen based on the IC50 values. […]
# [3] = Cytotoxicity assay (MTT, 72 h) on Hek293; assay type: cell-based; conditions: human
# Procedure: as §1, §2, §3, §4, §5
# [4] = Cytotoxicity assay (MTT, 72 h) on HepG2; assay type: cell-based; conditions: human
# Procedure: as §1, §2, §3, §4, §5
# [5] = normal cells Hek293, MTT, 72 h, Table S2
# [6] = liver cancer cell line HepG2, MTT, 72 h, Table S2
# [7] = read-out: IC50, alpha-glucosidase inhibition, previously reported
# [8] = read-out: IC50, alpha-glucosidase inhibition of natural analogs of 1e (Fig. 9)
# [9] = read-out: IC50, alpha-glucosidase inhibition of related synthetic analogs (Fig. 8)
IC50 (yeast alpha-glucosidase) [µM],SMILES,IC50 (Hek293 cells; [5]) [µg/mL],IC50 (HepG2 cells; [6]) [µg/mL],also measured
70.6 ± 1.2,"Cc1cc(O)c(C=O)c2c1C(=O)Oc1c(CO)c(O)c(C(=O)O)c(C)c1O2 [Compound 1, protocetraric acid]",35.7 ± 2.4,63.6 ± 0.06,IC50 (alpha-glucosidase [1]; [7]): 81.6 µM
25.9 ± 2.2,"Cc1cc(O)c(/C=N/Nc2ccccc2)c2c1C(=O)Oc1c(CO)c(O)c(C(=O)O)c(C)c1O2 [Compound 1a, (E)-3,8-dihydroxy-9-(hydroxymethyl)-1,6-dimethyl-11-oxo-4-((2-phenylhydrazono-)methyl)-11H-dibenzo[b,e][1,4]dioxepine-7-carboxylic acid]",> 100,> 100,
20.7 ± 1.1,"Cc1cc(O)c(/C=N/Nc2ccc(Br)cc2)c2c1C(=O)Oc1c(CO)c(O)c(C(=O)O)c(C)c1O2 [Compound 1b, (E)-4-((2-(4-bromophenyl)hydrazono)methyl)-3,8-dihydroxy-9-(hydroxymethyl)-1,6-dimethyl-11-oxo-11H-dibenzo[b,e][1,4]dioxepine-7-carboxylic acid]",> 100,> 100,
80.7 ± 1.8,"Cc1c(Br)c(O)c(Br)c2c1Oc1c(Br)c(O)c(Br)c(C)c1C(=O)O2 [Compound 1c, 2,4,7,9-tetrabromo-3,8-dihydroxy-1,6-dimethyl-11H-dibenzo[b,e][1,4]dioxepin-11-one]",58.9 ± 2.84,76.5 ± 1.07,
91.8 ± 1.5,"CC(=O)OCc1c(O)c(Br)c(C)c2c1OC(=O)c1c(C)c(Br)c(O)c(Br)c1O2 [Compound 1d, (2,4,7-tribromo-3,8-dihydroxy-1,6-dimethyl-11-oxo-11H-dibenzo[b,e][1,4]dioxep-in-9-yl)methyl acetate]",61.1 ± 2.71,86.7 ± 0.68,
10.4 ± 0.4,"Cc1cc(O)c(C=O)c2c1C(=O)Oc1c(C)c(C(=O)O)c(O)c(Cc3c(O)cc(O)c(Cc4c(O)c(C(=O)O)c(C)c5c4Oc4c(C=O)c(O)cc(C)c4C(=O)O5)c3C)c1O2 [Compound 1e, 6,6′-((4,6-dihydroxy-2-methyl-1,3-phenylene)bis(methylene))bis(4-formyl-3,7-dihydroxy-1,9-dimethyl-11-oxo-11H-dibenzo[b,e][1,4]dioxepine-8-carboxylic acid)]",> 100,> 100,"alpha-glucosidase inhibition, fold stronger than 1 (yeast alpha-glucosidase; compared with 1): seven-fold; inhibition type (alpha-glucosidase [2]; Lineweaver–Burk plots, 0, 1.82, 3.64, 7.28, 14.57 μM of 1e): mixed-mode inhibitor; Ki (alpha-glucosidase [2]; secondary plot, Fig. 4B, read-out: Ki, inhibition constant of binding with the free enzyme): 6.65 ± 0.48 µM"
41.8 ± 1.5,"COc1cc(C)c2c(c1C=O)Oc1c(c(C)c(O)c3c1C(OC)OC3=O)OC2=O (stereo not drawn) [Compound 2, 8′-methylstictic acid]",> 100,> 100,
30.4 ± 1.4,"COc1cc(C)c2c(c1C=O)Oc1c(c(C)c(O)c3c1C(O)OC3=O)OC2=O (stereo not drawn) [Compound 3, stictic acid]",33.9 ± 1.6,> 100,
> 200,"COc1cc(C)c2c(c1C=O)Oc1c(C=O)c(C(=O)O)c(O)c(C)c1OC2=O [Compound 4, 4,6-diformyl-8-hydroxy-3-methoxy-1,9-dimethyl-11-oxo-11H-dibenzo[b,e][1,4]dioxepine-7-carboxylic acid]",> 100,> 100,
> 200,"COc1c(C)c2c(c(C)c1Cl)Oc1c(C)c(O)c(Cl)c(C)c1C(=O)O2 [Compound 5, vicanicin]",> 100,> 100,
50.7 ± 2.7,"Cc1cc(O)c(C=O)c2c1C(=O)Oc1c(C)c(O)c3c(c1O2)C(O)OC3=O (stereo not drawn) [Compound 6, norstictic acid]",> 100,> 100,
102 ± 1.8,"Cc1c(O)c2c(c3c1OC(=O)c1c(C)c(Br)c(O)c(C=O)c1O3)C(O)OC2=O (stereo not drawn) [Compound 6a, 9-bromo-1,4,10-trihydroxy-5,8-dimethyl-3,7-dioxo-3,7-dihydro-1H-benzo[6,7][1,4]-dioxepino[2,3-e]isobenzofuran-11-carbaldehyde]",88.2 ± 2.02,> 100,
> 200,"COc1cc(C)c(C(=O)Oc2cc(C)c(C(=O)O)c(O)c2C)c(OC)c1C [Compound 7, diffractaic acid]",,,IC50 (alpha-glucosidase [1]; [7]): 420 µM
> 200,"COc1cc(C)c(C(=O)Oc2cc(C)c(C(=O)O)c(O)c2C)c(O)c1C [Compound 8, barbatic acid]",,,
> 200,"Cc1c(Cl)c(O)c(C=O)c(O)c1C(=O)O [Compound 10, 5-chlorohaematommic acid]",,,
,Cc1cc(OC(=O)c2c(O)cc(O)c(Cc3c(O)c(C(=O)O)c(C)c4c3Oc3c(C=O)c(O)cc(C)c3C(=O)O4)c2C)cc(O)c1C(=O)O [Cristifone A],,,IC50 (alpha-glucosidase [1]; [8]): 21.5 µM
,Cc1cc(O)c(C=O)c(O)c1Cc1c(O)c(C(=O)O)c(C)c2c1Oc1c(C=O)c(O)cc(C)c1C(=O)O2 [Cristifone B],,,"inhibition type, previously reported (alpha-glucosidase [1]): non-competitive inhibitors; IC50 (alpha-glucosidase [1]; [8]): 18.4 µM"
,"COc1cccc2c1C(=O)c1c(O)c3c(c(O)c1C2=O)C[C@@](O)(C(=O)CO)C[C@@H]3O[C@H]1C[C@H](N)[C@H](O)[C@H](C)O1 [Doxorubicin, reference compound]",2.13 ± 0.01,1.89 ± 0.03,
,"Cc1cc(O)c(/C=N/Nc2ccc(Br)cc2)c2c1C(=O)Oc1c(CO)c(O)c3c(c1O2)C(O)OC3=O (stereo not drawn) [I, (E)-11-((2-(4-bromophenyl)hydrazineylidene)methyl)-1,4,10-trihydroxy-5-(hydroxymethyl)-8-methyl-7H-benzo[6,7][1,4]dioxepino[2,3-e]isobenzofuran-3,7(1H)-dione]",,,"inhibition type, previously reported (alpha-glucosidase [1]): non-competitive inhibitors; IC50 (alpha-glucosidase [1]; [9]): 11.3 µM"
,Cc1c(Br)c(O)c(Br)c2c1C(=O)Oc1c(CO)c(O)c(Br)c(C=O)c1O2 [III],,,IC50 (alpha-glucosidase [1]; [9]): 16.4 µM
,Cc1cc(O)c(/C=N/Nc2ccc(Cl)cc2)c2c1C(=O)Oc1c(CO)c(O)c3c(c1O2)C(O)OC3=O (stereo not drawn) [II],,,IC50 (alpha-glucosidase [1]; [9]): 19.4 µM
,Cc1c(Br)c(O)c(Br)c2c1C(=O)Oc1c(CO)c(O)c3c(c1O2)C(O)OC3=O (stereo not drawn) [IV],,,IC50 (alpha-glucosidase [1]; [9]): 15.6 µM
,Cc1cc(OC(=O)c2c(C)cc(O)cc2O)cc(O)c1Cc1c(O)c(C(=O)O)c(C)c2c1Oc1c(C=O)c(O)cc(C)c1C(=O)O2 [Parmoferone A],,,IC50 (alpha-glucosidase [1]; [8]): 18.1 µM
,Cc1cc(O)cc(O)c1Cc1c(O)c2c(c3c1OC(=O)c1c(C)cc(O)c(C=O)c1O3)C(O)OC2=O (stereo not drawn) [Parmosidone F],,,"inhibition type, previously reported (alpha-glucosidase [1]): mixed-mode inhibitor; IC50 (alpha-glucosidase [1]; [8]): 2.2 µM"
,CC(=O)C=Cc1c(O)cc(C)c2c1Oc1c(c(Cc3c(C)cc(O)cc3O)c(O)c3c1C(O)OC3=O)OC2=O (stereo not drawn) [Parmosidone G],,,IC50 (alpha-glucosidase [1]; [8]): 4.3 µM
,COC(=O)c1c(C)c(Cc2c(O)cc(C)c3c2Oc2c(C=CC(C)=O)c(O)cc(C)c2C(=O)O3)c(O)c(C)c1O [Parmosidone H],,,IC50 (alpha-glucosidase [1]; [8]): 17.6 µM
,COC(=O)c1c(C)c(Cc2c(O)c(C(=O)O)c(C)c3c2Oc2c(C=O)c(O)cc(C)c2C(=O)O3)c(O)c(C=O)c1O [Parmosidone J],,,IC50 (alpha-glucosidase [1]; [8]): 10.7 µM
,Cc1cc(O)cc(O)c1Cc1c(O)c(C(=O)O)c(C)c2c1Oc1c(C=O)c(O)cc(C)c1C(=O)O2 [Parmosidone K],,,IC50 (alpha-glucosidase [1]; [8]): 6.1 µM
,Cc1c(Br)c(O)c(C=O)c2c1C(=O)Oc1c(Br)c(O)c3c(c1O2)C(O)OC3=O (stereo not drawn) [V],,,IC50 (alpha-glucosidase [1]; [9]): 14.3 µM

SMILES,IC50 (yeast alpha-glucosidase) [µM],IC50 (Hek293 cells; [5]) [µg/mL],IC50 (HepG2 cells; [6]) [µg/mL],also measured
"Cc1cc(O)c(C=O)c(O)c1 [Compound 9, atranol]",> 200,,,IC50 (alpha-glucosidase [1]; [7]): 559 µM
"COC(=O)[C@]12Oc3ccc(-c4ccc5c(c4O)C(=O)[C@@H]4CC[C@@H](C)[C@H](O)[C@]4(C(=O)OC)O5)c(O)c3C(=O)C1=C(O)C[C@H](C)[C@H]2O [Compound 11, eumitrin A1]",130 ± 2,,,"IC50 at 72 h [3]: 60.3 µM; IC50 (Hek293 cells; HEK293, 72 h): 37.6 ± 4.3 µg/mL; IC50 at 72 h [4]: 62.1 µM; IC50 (HepG2 cells; HepG2, 72 h): 38.8 ± 0.5 µg/mL"
